Data on two compounds can be found in patent US20240016812A1, “COMPOSITION FOR PREVENTING, ALLEVIATING OR TREATING CANCER” (CKP Therapeutics, Inc., priority 2021, published 2024).

Assay [1] has as its system YUMC-C1 cell line. The settings on record: YUMC-C1 xenograft mice; oral, 13 times for 41 days; doses of Table 3; vs control group. As for the experimental part: (§1) 15 days after injection of each of the cell lines, when the tumor volume reached about 100 to 200 mm^3, mice having a tumor with the above volume were randomly grouped (n=10/group), and then each drug was administered to the mice 13 times for a total of 41 days under the conditions shown in Table 3 below. Then, the changes in tumor volume during this administration were measured, and the results of the measurement are shown in FIG. 3. In addition, the tumor was extracted and the net weight of the tumor was measured, and the results of the measurement are shown in FIG. 4. Here, nothing was administered to the control group.

For assay [2], the system named is YUMC-C1 cell line. Particulars: 200 μM, drug alone.
Method: Each of the YUMC-C1, YUMC-H2 and YUMC-P1 cell lines of Example 1 was inoculated into 96-well plates at a density of 6×10^3 cells/well and then cultured overnight to a confluence of 90%. […] However, when hydroflumethiazide was used in combination with oxaliplatin or sorafenib, the treatment concentration of each of oxaliplatin and sorafenib was 30 μM. Thereafter, cell viability was measured using the MTT reagent. The absorbance was measured at 550 nm, and viable cells were counted using trypan blue staining.
Assay [3] relates to YUMC-H2 cell line. The assay can be described thus: MTT cell viability of anticancer drug-resistant cancer cell line. The assay is classed as cell-based, human. Particulars: 200 μM, drug alone.
Assay [4] deals with YUMC-P1 cell line. The assay is described as above. The assay is classed as cell-based, human. The settings on record: 200 μM, drug alone.
Assay [5] deals with YUMC-H2 cell line. Particulars: YUMC-H2 xenograft mice; oral, 13 times for 41 days; doses of Table 3. As to the method:
as §1

Assay [6] has as its system YUMC-P1 cell line. The settings on record: YUMC-P1 xenograft mice; oral, 13 times for 41 days; doses of Table 3. As for the experimental part:
as §1

In the case of `O=C1[O][Pt]2([NH][C@@H]3CCCC[C@H]3[NH]2)[O]C1=O` [oxaliplatin], in the assay with YUMC-C1 cell line [1], the net tumor weight result was “did not significantly decrease” and the tumor volume result is “did not significantly decrease”. Besides, the cells survived result with YUMC-C1 cell line [2] is listed as “more than 80%”.
Take `CNC(=O)c1cc(Oc2ccc(NC(=O)Nc3ccc(Cl)c(C(F)(F)F)c3)cc2)ccn1` [sorafenib]: the cells survived entry with YUMC-H2 cell line [3] and with YUMC-P1 cell line [4] was “more than 80%” throughout. The net tumor weight entry in the assay on YUMC-H2 cell line [5] and with YUMC-P1 cell line [6] was “no significant changes” each time. Further, the tumor volume result in the assay on YUMC-H2 cell line [5] and in the assay with YUMC-P1 cell line [6] was “no significant changes” each time.
